# Laboratory results: patent US7507732B2, “Cyclopentapyridine and tetrahydroquinoline derivatives” (Pfizer Inc., priority 2005, dated 2009)
# Read-outs that look alike come from different tables or passages of the source.
# Key:
# human 5HT2c receptor = molecular target: T1, human 5HT2c receptor (Homo sapiens, UniProt P28335); test: 5HT2c Binding Procedure (competition binding against 3H-5HT, membranes of transfected Swiss 3T3 mouse cells)
# T1 construct: expressed in transfected cells; host or cells: Swiss 3T3 mouse cells (ATCC)
# T1 sequence (P28335 33-458): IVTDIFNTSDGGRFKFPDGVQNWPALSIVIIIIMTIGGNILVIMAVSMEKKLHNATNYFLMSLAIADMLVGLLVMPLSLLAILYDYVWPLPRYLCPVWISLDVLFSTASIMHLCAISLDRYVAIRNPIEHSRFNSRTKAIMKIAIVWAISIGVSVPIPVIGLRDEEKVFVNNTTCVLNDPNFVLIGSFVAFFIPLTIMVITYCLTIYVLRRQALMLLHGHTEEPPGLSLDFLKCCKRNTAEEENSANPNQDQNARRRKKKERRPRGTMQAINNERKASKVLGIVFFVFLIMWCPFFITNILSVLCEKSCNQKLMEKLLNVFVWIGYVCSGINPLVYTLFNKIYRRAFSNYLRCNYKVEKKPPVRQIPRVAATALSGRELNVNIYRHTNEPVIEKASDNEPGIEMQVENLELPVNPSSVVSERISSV
# Description: Affinity of compounds at the serotonin 5HT2c binding site is determined by competition binding in Swiss 3T3 mouse cells (available from the American Type Culture Collection (ATCC), Manassas, Va.) transfected with the human 5HT2c receptor against ^3H-5HT.
# human 5HT2b receptor = human 5HT2b receptor (Homo sapiens, UniProt P41595); test: 5HT2b Binding Procedure (competition binding with 3H-LSD, CHO cell membranes)
# Description: Affinity of compounds for the human 5HT2b receptor is determined by competition binding using membranes prepared from Chinese hamster ovary (CHO) cells containing the tetracycline operator (Flp-In Trex system—Invitrogen) that were engineered to express the human 5HT2b receptor. […] The supernatant was removed and discarded, while the pellet was resuspended in homogenization buffer, then centrifuged for 20 minutes at 25,000×g at 4° C. The supernatant was discarded while the pellet (containing membranes) was resuspended in homogenization buffer, and the membranes were aliquoted and frozen at −80° C. The binding assay was set up in 96-well plates, which contained 2 μl of test compound (in 100% DMSO) then 100 μl of ^3H-LSD (final concentration=3 nM) diluted in assay buffer (50 mM Tris pH 7.4, 4 mM CaCl2, 0.1% Ascorbic Acid), followed by the addition of 100 μl of membranes (approximately 15 μg membrane protein, diluted in assay buffer) from 5HT2b -expressing cells. 1 μM mianserin was used to calculate non-specific binding. The assay plates were incubated at 37° C. for 60 minutes, then the assay was terminated by filtration onto 96-well UniFilter™ plates (with GF/C filters—from PerkinElmer™) which were pre-soaked in 0.3% PEI. The filterplates were washed 2× with cold wash buffer (50 mM Tris, pH 7.4), then dried, scintillation fluid added and radioactivity determined in a Wallac Microbeta™ plate scintillation counter (PerkinElmer™). Concentration-response curves of the % inhibition of specific binding by test compounds versus the test compound concentration, was used to determine the IC50 for each compound and the Ki value calculated based on the Cheng-Prusoff equation (Ki=IC50/(1+(L/Kd)), where L is the concentration of the radioligand used in the binding assay and the Kd is based on previous saturation studies with the radioligand.
# rat 5HT2a receptor = molecular target: T2, rat 5HT2a receptor (Rattus norvegicus, UniProt P14842); test: 5HT2a Binding Procedure (competition binding using 125I-DOI, membranes of transfected NIH 3T3 mouse cells)
# T2 construct: expressed in transfected cells; host or cells: NIH 3T3 mouse cells
# Description: Affinity of compounds at the serotonin 5HT2a binding site is determined by competition binding in NIH 3T3 mouse cells transfected with the rat 5HT2a receptor using 125I-DOI.
# [1] = cited from earlier work
# [2] = receptor binding, 5HT2c, read-out: 2cKi
# [3] = receptor binding, 5HT2a, read-out: 2aKi
# Chain of human 5HT2b receptor (P41595 whole entry): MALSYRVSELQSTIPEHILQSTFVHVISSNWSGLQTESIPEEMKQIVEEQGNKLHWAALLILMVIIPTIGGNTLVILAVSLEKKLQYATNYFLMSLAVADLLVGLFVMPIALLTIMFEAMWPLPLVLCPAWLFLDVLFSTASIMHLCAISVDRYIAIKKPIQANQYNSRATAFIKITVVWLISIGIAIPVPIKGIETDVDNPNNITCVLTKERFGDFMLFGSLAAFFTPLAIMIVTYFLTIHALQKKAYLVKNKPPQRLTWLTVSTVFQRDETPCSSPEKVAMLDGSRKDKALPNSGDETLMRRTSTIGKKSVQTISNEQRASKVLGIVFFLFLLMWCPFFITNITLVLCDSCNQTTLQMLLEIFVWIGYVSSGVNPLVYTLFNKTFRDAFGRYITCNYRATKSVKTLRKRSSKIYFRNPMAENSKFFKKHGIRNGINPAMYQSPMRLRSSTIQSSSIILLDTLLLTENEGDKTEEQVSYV
# T2 sequence (P14842 whole entry): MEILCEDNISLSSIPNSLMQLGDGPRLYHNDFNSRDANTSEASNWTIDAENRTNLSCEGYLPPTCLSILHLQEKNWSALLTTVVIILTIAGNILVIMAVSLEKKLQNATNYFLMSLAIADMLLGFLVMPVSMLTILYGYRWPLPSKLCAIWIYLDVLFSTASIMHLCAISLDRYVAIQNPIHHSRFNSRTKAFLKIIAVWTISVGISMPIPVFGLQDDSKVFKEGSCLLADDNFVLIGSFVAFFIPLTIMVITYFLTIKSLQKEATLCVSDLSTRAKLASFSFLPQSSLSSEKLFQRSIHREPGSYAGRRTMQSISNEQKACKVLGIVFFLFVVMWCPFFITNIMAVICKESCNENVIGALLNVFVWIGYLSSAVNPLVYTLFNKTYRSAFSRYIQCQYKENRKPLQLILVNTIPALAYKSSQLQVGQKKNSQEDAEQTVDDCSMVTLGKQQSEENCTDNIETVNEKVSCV
Structure (SMILES),Ki (human 5HT2c receptor),Ki (human 5HT2b receptor),Ki (rat 5HT2a receptor),Ki (human 5HT2c receptor; [2]),Ki (rat 5HT2a receptor; [3]),further results
"Fc1ccc(F)c(CO[C@H]2CCc3ccc(N4CCNCC4)nc32)c1 [Example 1A-37, (7S)-7-[(2,5-difluorobenzyl)oxy]-2-piperazin-1-yl-6,7-dihydro-5H-cyclopenta[b]pyridine]",26.6 nM,159 nM,25 nM,–,–,–
"C[C@@H]1CNCCN1c1ccc2c(n1)[C@@H](OCc1cccc(C#N)c1)CC2 [Example 2A-4, 3-[({(7S)-2-[(2R)-2-methylpiperazin-1-yl]-6,7-dihydro-5H-cyclopenta[b]pyridin-7-yl}oxy)methyl]benzonitrile]",–,803 nM,–,6.9 nM,33.9 nM,–
"Fc1cc2c(c(O[C@H]3CCc4ccc(N5CCNCC5)nc43)c1)CCC2 [Example 3A-76, (7S)-7-[(6-fluoro-2,3-dihydro-1H-inden-4-yl)oxy]-2-piperazin-1-yl-6,7-dihydro-5H-cyclopenta[b]pyridine]",–,53 nM,–,3 nM,2.8 nM,–
"c1ccc2c(O[C@H]3CCc4ccc(N5CCNCC5)nc43)cncc2c1 [Example 3A-83, 4-{[(7S)-2-piperazin-1-yl-6,7-dihydro-5H-cyclopenta[b]pyridin-7-yl]oxy}isoquinoline]",17.9 nM,–,46.8 nM,–,–,"Ki (human 5HT2b receptor; read-out: 2bKi, receptor binding, 5HT2b): 145 nM"
C[C@@H]1CNCCN1c1ccc2c(n1)[C@@H](Oc1ccccc1F)CC2 [Example 4A-4],–,21 nM,–,5.11 nM,4.14 nM,–
"O=C1Cc2cc(CCN3CCN(c4nsc5ccccc45)CC3)c(Cl)cc2N1 [Ziprasidone, 5-[2-[4-(1,2-benzisothiazol-3-yl)piperazin-1-yl]ethyl]-6-chloroindolin-2-one]",–,–,–,–,–,half-life ([1]; in vivo): 6 to 7 h; protein binding ([1]; in vivo): extensive; Oral bioavailability ([1]; taken with food): approximately 60%
